According to patent US20250228954A1, “Designing Antisense Oligonucleotide Delivery Peptides by Interpretable Machine Learning” (Sarepta Therapeutics, Inc., priority 2020, published 2025):

Assays:
[1] = test system: HeLa 654 cells; experiment: Cytotoxicity by gated cell count and propidium iodide staining in flow cytometry; assay type: cell-based, human; settings: at the concentrations tested in dose-response, 22 h
Description: The different modules led to several noticeable trends in the level of cellular fluorescence (FIG. 6). When module 2 was DPV6, the overall construct consistently led to high fluorescence, regardless of which peptides were placed in module 3 and 4. However, when either pVEC or TP10 was placed in module 2, minor cellular fluorescence was observed. A gated cell count was used during flow cytometry as an indirect read-out to control for the toxicity of the compounds. Highly toxic compounds led to a reduction in overall cell count and non-viable cells were gated out based upon propidium iodide staining. In this experiment, it was observed that when the module 3 peptide was the nuclear localization sequence KRVK, lower cell counts were consistently observed.
In the same format as described above, HeLa 654 cells were treated with varying concentrations of Mach 2, 3, 4, and 7 for 22 hours and analyzed by flow cytometry.
(§1) HeLa 654 cells were maintained in MEM supplemented with 10% (v/v) fetal bovine serum (FBS) and 1% (v/v) penicillin-streptomycin at 37° C. and 5% CO2. Eighteen hours prior to treatment, the cells were plated at a density of 5,000 cells per well in a 96-well plate in MEM supplemented with 10% FBS and 1% penicillin-streptomycin. The day of the experiment, the 384 well plate containing the crude reaction mixtures in DMSO was diluted to 100 μM by the addition of 16.8 μL of PBS to the 3.2 μL reaction mixture. Then, each construct was diluted to 5 μM in MEM supplemented with 10% FBS and 1% penicillin-streptomycin. Cells were incubated with each conjugate at a concentration of 5 μM for 22 hours at 37° C. and 5% CO2. Next, the treatment media was aspirated the cells were incubated with Trypsin-EDTA 0.25% for 15 min at 37° C. and 5% CO2, washed 1× with PBS, and resuspended in PBS with 2% FBS and 2 μg/mL propidium iodide. Flow cytometry analysis was carried out on a BD LSRII flow cytometer. Gates were applied to the data to ensure that cells that were highly positive for propidium iodide or had forward/side scatter readings that were sufficiently different from the main cell population were excluded. Each sample was capped at 5,000 gated events.

[2] = test system: HeLa 654 cells; experiment: HeLa-654 eGFP assay (corrective splicing / exon skipping by PMO IVS2-654); assay type: cell-based, human; settings: 5 μM, 22 h; for FOLD OVER PMO: eGFP fluorescence of PMO-peptide conjugate relative to unconjugated PMO
Procedure: With the 36 constructs synthesized, the ability to modulate PMO activity using the modified HeLa cell assay was tested. The HeLa-654 cells were stably transfected to express a nonfluorescent eGFP protein. The eGFP gene is interrupted by a mutant intron from the human β-globin gene (IVS2-654). The insertion alters pre-mRNA splicing to cause retention of a fragment in the mature mRNA that results in a nonfluorescent protein. PMO IVS2-654 base-pairs with the B-globin insertion, modifies mRNA splicing, and thereby leads to expression of fluorescent eGFP.
For treatment, the crude reaction mixture was diluted to 5 μM in media. The concentration of the modular construct was calculated based on the original concentration of the module 1-2 conjugate mixed in the reaction. Using media containing 10% fetal bovine serum (FBS), the cells were treated with each construct for 22 hours, after which the cellular fluorescence was measured by flow cytometry.
From the lists of hundreds of predicted peptide sequences, twenty candidates were selected that varied in length, charge, and predicted activity to synthesize and test. Just as with the PMO-peptide library, the PMO-Mach constructs were first tested for PMO delivery in the HeLa 654 assay at 5 μM in complete media for 22 hours and analyzed by flow cytometry (FIG. 14). Experiments were conducted using three technical triplicates and two or three biological replicates.
as §1
Analysis was conducted using Graphpad Prism 7. For each sample, the mean fluorescence intensity and the number of gated cells was measured (FIGS. 8 and 9) and the intensity multiplied by the cell number was calculated (FIG. 7).

SMILES	cytotoxicity as determined by cell count and PI staining [1]	PMO delivery / activity, result in words [2]	FOLD OVER PMO [2]
CC[C@H](C)[C@H](NC(=O)[C@H](CC(C)C)NC(=O)[C@H](CCCNC(=N)N)NC(=O)CCCCCNC(=O)[C@H](Cc1ccc(O)cc1)NC(=O)[C@H](CCCCN)NC(=O)CCCCCNC(=O)[C@H](C)NC(=O)[C@H](CO)NC(=O)[C@H](CCCNC(=N)N)NC(=O)[C@H](C)NC(=O)[C@H](CCCCN)NC(=O)[C@H](Cc1c[nH]c2ccccc12)NC(=O)[C@H](CC(C)C)NC(=O)[C@H](Cc1c[nH]c2ccccc12)NC(=O)[C@H](CCCCN)NC(=O)[C@H](CCCCN)NC(=O)[C@H](CCCCN)NC(=O)[C@H](CCC(N)=O)NC(=O)[C@H](CCCCN)NC(=O)[C@H](CO)NC(=O)[C@H](CO)NC(=O)[C@H](CCCCN)NC(=O)[C@H](CCCCN)NC(=O)[C@H](CC(C)C)NC(=O)[C@H](CCCNC(=N)N)NC(=O)[C@H](CCCCN)NC(=O)[C@H](CCCCN)NC(=O)[C@H](CCCCN)NC(=O)[C@H](Cc1c[nH]c2ccccc12)NC(=O)[C@H](CC(C)C)NC(=O)[C@H](C)NC(=O)[C@H](C)NC(=O)[C@H](C)NC(=O)[C@@H]1CCCN1C(=O)[C@@H](NC(=O)[C@H](CCCCN)NC(=O)[C@H](Cc1c[nH]c2ccccc12)NC(=O)[C@H](C)NC(=O)[C@H](CCCNC(=N)N)NC(=O)[C@H](C)NC(=O)[C@H](C)NC(=O)CCNC(=O)[C@H](CCC(N)=O)NC(=O)[C@@H](NC(=O)[C@H](C)NC(=O)CCCCCNC(=O)[C@@H]1CCCN1C(=O)[C@H](Cc1c[nH]cn1)NC(=O)[C@H](CCCCN)NC(=O)CCCCCNC(=O)CCCCn1nnc2c1-c1ccccc1N(C(=O)CCCCC(=O)N1C[C@@H](COP(=O)(N(C)C)N3C[C@@H](COP(=O)(N(C)C)N4C[C@@H](COP(=O)(N(C)C)N5C[C@@H](COP(=O)(N(C)C)N6C[C@@H](COP(=O)(N(C)C)N7C[C@@H](COP(=O)(N(C)C)N8C[C@@H](COP(=O)(N(C)C)N9C[C@@H](COP(=O)(N(C)C)N%10C[C@@H](COP(=O)(N(C)C)N%11C[C@@H](COP(=O)(N(C)C)N%12C[C@@H](COP(=O)(N(C)C)N%13C[C@@H](COP(=O)(N(C)C)N%14C[C@@H](COP(=O)(N(C)C)N%15C[C@@H](COP(=O)(N(C)C)N%16C[C@@H](COP(=O)(N(C)C)N%17C[C@@H](COP(=O)(N(C)C)N%18C[C@@H](COP(=O)(N(C)C)N%19C[C@@H](COP(=O)(N(C)C)N%20CCN(C(=O)OCCOCCOCCO)CC%20)O[C@@H](n%20cnc%21c(=O)[nH]c(N)nc%21%20)C%19)O[C@@H](n%19ccc(N)nc%19=O)C%18)O[C@@H](n%18cc(C)c(=O)[nH]c%18=O)C%17)O[C@@H](n%17cnc%18c(N)ncnc%18%17)C%16)O[C@@H](n%16cc(C)c(=O)[nH]c%16=O)C%15)O[C@@H](n%15cc(C)c(=O)[nH]c%15=O)C%14)O[C@@H](n%14cnc%15c(N)ncnc%15%14)C%13)O[C@@H](n%13ccc(N)nc%13=O)C%12)O[C@@H](n%12ccc(N)nc%12=O)C%11)O[C@@H](n%11cc(C)c(=O)[nH]c%11=O)C%10)O[C@@H](n%10cc(C)c(=O)[nH]c%10=O)C9)O[C@@H](n9cnc%10c(N)ncnc%109)C8)O[C@@H](n8cnc9c(N)ncnc98)C7)O[C@@H](n7ccc(N)nc7=O)C6)O[C@@H](n6ccc(N)nc6=O)C5)O[C@@H](n5ccc(N)nc5=O)C4)O[C@@H](n4cnc5c(N)ncnc54)C3)O[C@@H](n3cnc4c(=O)[nH]c(N)nc43)C1)Cc1ccccc1-2)C(C)C)C(C)C)C(N)=O (some centres unmarked) [MACH 7]	no cytotoxicity	nearly identical	36
CSCC[C@H](NC(=O)[C@H](CCCCN)NC(=O)[C@H](CC(C)C)NC(=O)[C@H](CC(N)=O)NC(=O)[C@H](CC(N)=O)NC(=O)[C@H](CCCCN)NC(=O)[C@H](CC(C)C)NC(=O)[C@H](CC(N)=O)NC(=O)[C@H](CCCCN)NC(=O)[C@H](CCCCN)NC(=O)[C@H](CCCCN)NC(=O)[C@H](C)NC(=O)[C@H](CC(N)=O)NC(=O)[C@H](CCCNC(=N)N)NC(=O)[C@H](CC(C)C)NC(=O)[C@@H]1CCCN1C(=O)[C@@H]1CCCN1C(=O)CCCCn1nnc2c1-c1ccccc1N(C(=O)CCCCC(=O)N1C[C@@H](COP(=O)(N(C)C)N3C[C@@H](COP(=O)(N(C)C)N4C[C@@H](COP(=O)(N(C)C)N5C[C@@H](COP(=O)(N(C)C)N6C[C@@H](COP(=O)(N(C)C)N7C[C@@H](COP(=O)(N(C)C)N8C[C@@H](COP(=O)(N(C)C)N9C[C@@H](COP(=O)(N(C)C)N%10C[C@@H](COP(=O)(N(C)C)N%11C[C@@H](COP(=O)(N(C)C)N%12C[C@@H](COP(=O)(N(C)C)N%13C[C@@H](COP(=O)(N(C)C)N%14C[C@@H](COP(=O)(N(C)C)N%15C[C@@H](COP(=O)(N(C)C)N%16C[C@@H](COP(=O)(N(C)C)N%17C[C@@H](COP(=O)(N(C)C)N%18C[C@@H](COP(=O)(N(C)C)N%19C[C@@H](COP(=O)(N(C)C)N%20CCN(C(=O)OCCOCCOCCO)CC%20)O[C@@H](n%20cnc%21c(=O)[nH]c(N)nc%21%20)C%19)O[C@@H](n%19ccc(N)nc%19=O)C%18)O[C@@H](n%18cc(C)c(=O)[nH]c%18=O)C%17)O[C@@H](n%17cnc%18c(N)ncnc%18%17)C%16)O[C@@H](n%16cc(C)c(=O)[nH]c%16=O)C%15)O[C@@H](n%15cc(C)c(=O)[nH]c%15=O)C%14)O[C@@H](n%14cnc%15c(N)ncnc%15%14)C%13)O[C@@H](n%13ccc(N)nc%13=O)C%12)O[C@@H](n%12ccc(N)nc%12=O)C%11)O[C@@H](n%11cc(C)c(=O)[nH]c%11=O)C%10)O[C@@H](n%10cc(C)c(=O)[nH]c%10=O)C9)O[C@@H](n9cnc%10c(N)ncnc%109)C8)O[C@@H](n8cnc9c(N)ncnc98)C7)O[C@@H](n7ccc(N)nc7=O)C6)O[C@@H](n6ccc(N)nc6=O)C5)O[C@@H](n5ccc(N)nc5=O)C4)O[C@@H](n4cnc5c(N)ncnc54)C3)O[C@@H](n3cnc4c(=O)[nH]c(N)nc43)C1)Cc1ccccc1-2)C(=O)N[C@@H](CC(=O)O)C(=O)N1CCC[C@H]1C(=O)N[C@@H](CCCCN)C(=O)N[C@@H](Cc1ccccc1)C(=O)N[C@H](C(=O)N[C@@H](CCCCN)C(=O)N[C@@H](CCCCN)C(=O)N[C@H](C(=O)N[C@@H](CCCCN)C(=O)N[C@@H](CCC(N)=O)C(=O)NCC(=O)N[C@@H](C)C(=O)N[C@@H](CC(C)C)C(=O)N[C@@H](CCCCN)C(=O)N[C@@H](CC(C)C)C(=O)N[C@@H](CC(N)=O)C(=O)N[C@@H](CCCNC(=N)N)C(=O)N[C@@H](CCCNC(=N)N)C(=O)N[C@@H](CCCCN)C(=O)N[C@@H](CCCCN)C(=O)N[C@@H](CC(N)=O)C(=O)N[C@@H](CCCNC(=N)N)C(=O)NCC(=O)N1CCC[C@H]1C(=O)N[C@@H](CCCCN)C(=O)NCC(=O)N1CCC[C@H]1C(=O)NCCCCCC(=O)N[C@@H](CCCCN)C(=O)N[C@@H](Cc1c[nH]cn1)C(=O)N[C@@H](Cc1c[nH]c2ccccc12)C(=O)N[C@H](C(=O)N[C@H](C(N)=O)[C@@H](C)O)[C@@H](C)O)C(C)C)[C@@H](C)O (some centres unmarked) [MACH 2]	no cytotoxicity		27
